Values of other authors in US6455557B1 (Elan Pharmaceuticals, Inc., priority 2001, dated 2002).
Where two headings read alike, the source gives them in different places.

What was measured:
plasma proteins = details: independent of concentration over the therapeutic range
[1] = not given; remark: listed apart in the source
[2] = not given; remark: listed apart in the source
[3] = oral administration, tablet formulation

Clc1cccc(Cl)c1N=C1NCCN1 [clonidine]
Efficacy in treating spastic conditions (human, in vivo): ineffective

Clc1ccc2nsnc2c1NC1=NCCN1 [tizanidine, 5-chloro-4-(2-imidazolin-2-ylamino)-2,1,3-benzothiadiazole]
Bound to plasma proteins (plasma proteins): approximately 30% | Fraction of an administered dose metabolized ([1]; in vivo): approximately 95% | Mean steady state volume of distribution ([1]; intravenous administration, healthy adult volunteers): 2.4 L/kg | Absolute oral bioavailability ([1]; oral): approximately 40% | Half-life [1, 3]: approximately 2.5 hours | Time of peak plasma concentrations after dosing [1, 3]: 1.5 h | Dose linearity of pharmacokinetics ([1]; over a dose of 1 to 20 mg): linear pharmacokinetics | Extent of tizanidine absorption with food ([1]; tablet formulation, with food): not affected | Increase of Cmax by food ([1]; tablet formulation, with food): approximately one-third | Shortening of time to peak concentration by food ([1]; tablet formulation, with food): approximately 40 minutes | Sedation cases rated as severe ([2]; multiple dose, controlled clinical studies): 10% | Patients reporting sedation as an adverse event ([2]; multiple dose, controlled clinical studies, any dose): 48% | Patients continuing to report drowsiness 6 hours following dosing ([2]; single dose of 8 mg): 13% | Patients continuing to report drowsiness 6 hours following dosing ([2]; single dose of 16 mg): 51% | Onset of drowsiness following dosing ([2]; single dose study): 30 min | Peak of drowsiness following dosing ([2]; single dose study): 1.5 h | Patients reporting that they were drowsy during the 6 hour study ([2]; single dose study, 8 mg): 76% | Patients reporting that they were drowsy during the 6 hour study ([2]; single dose study, 16 mg): 92% | Muscle strength, as assessed by objective means (patients): not to be adversely affected | Spasm frequency and clonus (patients): reduced | Subjective muscle weakness compared with baclofen or diazepam recipients (patients): reported less often | Time of maximum anti-spastic effects after administration (some studies): ≤ 2 h
